Measured values taken from paper PMC10418970, “Effective and Selective Ru(II)-Arene Complexes Containing 4,4′-Substituted 2,2′ Bipyridine Ligands Targeting Human Urinary Bladder Cancer Cells” (International Journal of Molecular Sciences, 2023).
pIC50: −log10 of the molar value.

How the values were obtained:
[1] = system: T24-bladder cells; experiment: MTT cell proliferation assay, T24; assay type: cell-based, human; conditions: 24 h incubation
[2] = Solubility (observation)
[3] = system: EB-CTDNA adduct; experiment: EB/CTDNA fluorescence competition (quenching); assay type: binding, calf; conditions: [DNA] 5 μM, [EB] 5 μM, complex 0-50 μM
Experimental: To learn more about the binding properties of 1–7 with CTDNA, the fluorescence competition technique is employed. EB is an orange fluorescent dye and an intercalating agent for DNA.
3.2 Fluorescence titration experiments
The displacement of the EB-bound was obtained by
treated with a saturating ethidium bromide 5 µM.
Figure S5. […] [DNA]= 5 µM,
[EB] = 5 µM and [complex] = 0˗50 µM. […]

[4] = system: HepG-2-hepatic cells; experiment: MTT cell proliferation assay, HepG-2; assay type: cell-based, human; conditions: 24 h incubation
[5] = Shake-flask water-octanol Log p; conditions: n-octanol / water containing 0.45% sodium chloride, 0.5 mM, 37 °C
Experimental: The complex was dissolved in a mixture with equal volumes of pre-saturated n-octanol and water to a final concentration of 0.5 mM. The mixture was shaken at 250 rpm for 24 h at 37 °C and then centrifuged at 3000 rpm for 10 min. The complex concentration (C) in each phase was measured by UV-Vis spectroscopy and used to calculate Log p, according to the formula Log p = log (Coctanol/Cwater).

[6] = system: T24 cells; experiment: Flow cytometry FITC Annexin V apoptosis assay; assay type: cell-based, human; conditions: at IC50 concentration (1: […]; 2: 14.5 μM)
Experimental: Figure S10. Cytotoxic effects of complexes ( 1-7) against (A) EA.hy-926, (B) HepG-2, (C) T24, (D) normal kidney (Vero) cells
and (E) MCF-10a-breast epithelial . Data expressed in SD±mean with three replicates.
After 24 h incubation, control and treated cells were stained with acriddine
orange (AO)/ethidium bromide (EB) and incubated for 10 min. The images were taken immediately under fluorescent
8. Flow cytometry studies
The cell apoptotic rate was determined by flow cytometry analysis with the fluorescein isothiocyanate (FITC)
Annexin V apoptosis detection kit (Multi Sciences, China). T24 cancer cells were collected by trypsinization, washed
twice and resuspended in […], 1 × binding buffer with […] of FITC Annexin V and […] of PI. After incubation for
15 min, the samples were subjected to analysis by flow cytometry. The results were analysed with the BD FACS Calibur™
(1 picture or pasted object on this page, not shown here)

[7] = system: Vero cells; experiment: MTT cell proliferation assay, Vero; assay type: cell-based, African green monkey; conditions: 24 h incubation; healthy cells
[8] = system: EA.hy926 endothelial cells; experiment: MTT cell proliferation assay, EA.hy926; assay type: cell-based, human; conditions: 24 h incubation
[9] = system: MCF-10a-breast epithelial cells; experiment: MTT cell proliferation assay, MCF-10a; assay type: cell-based, human; conditions: 24 h incubation; healthy cells
[10] = target: T1, Bovine serum albumin (BSA) (Bos taurus, UniProt P02769); experiment: BSA fluorescence titration (Stern-Volmer, Scatchard); assay type: binding; conditions: for number of binding sites (n) on BSA: Scatchard equation; for BSA quenching constant Kq: [BSA] 1 μM, complex 0-20 μM, phosphate buffer pH 7.2
T1 construct: purchased Sigma Aldrich
T1 sequence (P02769 25-607): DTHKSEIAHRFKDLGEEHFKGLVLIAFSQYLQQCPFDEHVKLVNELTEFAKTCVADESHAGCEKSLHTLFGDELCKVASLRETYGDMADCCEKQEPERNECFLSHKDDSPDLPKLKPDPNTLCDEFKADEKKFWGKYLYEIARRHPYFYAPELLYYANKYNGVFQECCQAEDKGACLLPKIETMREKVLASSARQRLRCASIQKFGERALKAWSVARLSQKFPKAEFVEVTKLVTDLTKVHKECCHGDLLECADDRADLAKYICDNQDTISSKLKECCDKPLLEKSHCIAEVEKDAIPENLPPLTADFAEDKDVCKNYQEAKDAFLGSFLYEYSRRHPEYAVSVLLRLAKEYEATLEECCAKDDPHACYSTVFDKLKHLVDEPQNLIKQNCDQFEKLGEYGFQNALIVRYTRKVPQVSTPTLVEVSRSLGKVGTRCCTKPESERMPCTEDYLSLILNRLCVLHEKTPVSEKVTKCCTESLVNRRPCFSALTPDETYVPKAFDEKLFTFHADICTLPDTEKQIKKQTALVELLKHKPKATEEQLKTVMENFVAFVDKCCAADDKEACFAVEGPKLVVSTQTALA
Text: To explore the mode of complex-protein interaction, we monitor the BSA fluorescence quenching at […] by addition of increasing amounts of 1–7 to a fixed quantity of BSA (Figure S7). […] The molar absorptivity of tyrosine and phenylalanine are 10- and 200-fold weaker than tryptophan, respectively, and are ignored in the modelling. […] The complex binding-induced fluorescence quenching is described by the linear Stern–Volmer relationship (Figure 12A) to obtain the quenching constant Kq (see SI for details). Further, the equilibrium binding constant (Kb) of the complex to BSA and the number of binding sites (n) are obtained by casting the fluorescence intensity in the absence of quencher (F^0) and quencher concentration [Q] dependent F into the Scatchard equation [35]: log [(F^0− F)/F] = log Kb + n log[Q], as shown in Figure 12B.
4 Interaction of complexes with Bovine serum albumin
4.1 Fluorescence titration
The interaction of complexes with BSA was studied using fluorescence spectra, recorded at a fixed excitation wavelength corresponding to BSA at 280 nm and monitoring the emission at 335 nm. Stock solution of BSA were prepared by dissolving commercial BSA in 50mM phosphate buffer (pH 7.2) and stored at 4 οC for further use.
Concentrated stock solution of each test compound were prepared by dissolving it in DMF-phosphate buffer (5:95) and diluted with phosphate buffer to get required concentrations. For the fluorescence measurements, 2.5 mL solution of BSA was titrated with successive additions of […] stock solution of complexes (0-20 µM) […]
Figure S7. Fluorescence quenching curves of BSA in the absence and presence of complexes 1-7. […]

Structure (SMILES)	pIC50 [1]	solubility [2]	Stern–Volmer quenching constant Kq (EB/CTDNA) [3]	pIC50 [4]	Log p Exp. Shake Flask [5]	apoptotic rate (late + early) [6] [%]	early apoptosis (Q3) [6] [%]	late apoptosis (Q2) [6] [%]	pIC50 [7]	pIC50 [8]	pIC50 [9]	number of binding sites (n) on BSA [10]	BSA quenching constant Kq [10]	apparent DNA binding constant Kapp [3]
Cc1ccc(C(C)C)cc1.O=C(O)c1ccnc(-c2cc(C(=O)O)ccn2)c1.[Cl-].[Cl-].[Ru+2] [Complex 2, [Ru-η^6-p-cymene-(4,4′-(COOH)2bipy)Cl]Cl]	4.84	more soluble in high polar organic solvents	4.89 10^4 M^−1	< 4.30	−1.65	18.24	10.9	7.34	< 4.30	< 4.30	< 4.30	1.2	6.446 × 10^4 10^4 M^−1	–
N.N.[Cl][Pt][Cl] [Cisplatin, reference compound]	< 4.30	–	–	4.31	–	–	–	–	4.47	4.64	4.54	–	–	–
COC(=O)c1ccnc(-c2cc(C(=O)OC)ccn2)c1.[Cl-].[Cl-].[Ru+2].c1ccccc1 [Complex 6, [Ru-η^6-benzene-(4,4′-(COOCH3)2bipy)Cl]Cl]	4.39	–	6.69 10^4 M^−1	4.84	−1.12	–	–	–	4.31	4.31	< 4.30	1.0	3.103 × 10^4 10^4 M^−1	3.34 10^6 M^−1
CCOC(=O)c1ccnc(-c2cc(C(=O)OCC)ccn2)c1.[Cl-].[Cl-].[Ru+2].c1ccccc1 [Complex 7, [Ru-η^6-benzene-(4,4′-(COOC2H5)2bipy)Cl]Cl]	4.70	–	7.21 10^4 M^−1	4.38	−0.14	–	–	–	4.47	4.62	< 4.30	1.1	4.779 × 10^4 10^4 M^−1	3.61 10^6 M^−1
CCOC(=O)c1ccnc(-c2cc(C(=O)OCC)ccn2)c1.Cc1ccc(C(C)C)cc1.[Cl-].[Cl-].[Ru+2] [Complex 4, [Ru-η^6-p-cymene-(4,4′-(COOC2H5)2bipy)Cl]Cl]	4.91	–	6.36 10^4 M^−1	4.68	0.88	–	–	–	4.51	4.49	4.40	1.0	3.777 × 10^4 10^4 M^−1	3.18 10^6 M^−1
COC(=O)c1ccnc(-c2cc(C(=O)OC)ccn2)c1.Cc1ccc(C(C)C)cc1.[Cl-].[Cl-].[Ru+2] [Complex 3, [Ru-η^6-p-cymene-(4,4′-(COOCH3)2bipy)Cl]Cl]	4.67	–	6.05 10^4 M^−1	< 4.30	–	–	–	–	4.34	4.51	< 4.30	1.0	3.622 × 10^4 10^4 M^−1	3.02 10^6 M^−1
CC(C)(C)c1ccnc(-c2cc(C(C)(C)C)ccn2)c1.[Cl-].[Cl-].[Ru+2].c1ccccc1 [Complex 5, [Ru-η^6-benzene-(4,4′-(C4H9)2bipy)Cl]Cl]	–	–	–	–	2.45	–	–	–	–	–	–	–	–	–
